Like-named read-outs stand apart in the source and are kept apart here.

In one data set the test system is Ehrlich acites carcinoma. As to the kind of experiment: Growth-inhibiting effect against Ehrlich acites carcinoma. The class given is in vivo, male mice. Particulars: Mus musculus, Ehrlich, 120 h, 5 days; for response vs control in vivo at 50 mg/kg: 50 mg/kg/day ip; for response vs control in vivo at 200 mg/kg: 200 mg/kg/day ip; for response vs control in vivo at 25 mg/kg: 25 mg/kg/day ip; for response vs control in vivo at 100 mg/kg: 100 mg/kg/day ip. The protocol: Ehrlich acites carcinoma (1×10^7 cells) was implantated into the abdominal cavities of a 6-membered group of male mice. Test compounds (solutions or suspensions in 1% Nikohl HCO-60) were each intraperioneally administered once a day 5 successive days to the mice 24 hrs. after the implantation. Total packed cell volumes [TPCV, namely, total packed volumes of Acites carcinoma] were determined 7 days after the implantation to calculate growth ratio of tumor [T/C%; T: packed volume of Acites carcinoma in treated groups, C: packed volume of Acites carcinoma in an untreated group]. Acitivity is represented by - when T/C% is 100-66, by + when T/C% 65-41, by ++ when T/C% 40-11, and by +++ when T/C% 10-0.

The test system of the next data set is Leukemia L1210. As to the kind of experiment: Activity against Leukemia L1210, intraperitoneal, increase in life span of mice. The class given is in vivo, female mice (BDF1 family). Particulars: for ED (maximum ILS) / ED30: Mus musculus, L1210, ip; for ED (maximum ILS) / ED30 / O.D. (optimum dosage) / ILS30: ip once a day for 5 successive days; for ED (maximum ILS) / O.D. (optimum dosage): daily dosage giving maximum increase of life span; for ED (maximum ILS): read-out: O.D. (optimum dosage); for ED30 / ILS30: daily dosage increasing average survival days by 30%; for ED30: read-out: ILS30; for Survivors after 60 days / Max. ILS % / Therapeutic ratio TR: ip; for Survivors after 60 days: 6-membered group; for Max. ILS %: 60-day observation, versus control; for Therapeutic ratio TR: O.D./ILS30. The method in brief:
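Female BDF1 mice (20 to 23 g, 6 per group) implanted ip with 1×10^5 L1210 cells; test compound given ip or orally once daily for 5 days starting 24 h later. ILS% from mean survival days vs untreated controls over 60 days; T.R. = O.D./ILS30.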

Data set [1] is described as follows: Acute toxicity (LD50, Behrens-Karber method). The class given is in vivo, ICR mice. The following applies: ip, mortality during 30 days; for LD50 at 720 h: mouse, in vivo; for LD50: 43200 min. The protocol:
Test compounds, dissolved or suspended in 0.5% aqueous CMC, were each intraperitoneally administered to ICR mice in a dose of 0.1 ml per 10 g body weight. LD50 (mg/kg) value of each test compound was calculated from the mortality of mice during 30 days by the Behrens-Karber method.

For the compound `CCCCO[C@H]1O[C@H](CN(C)C(=O)N(CCCl)N=O)[C@@H](O)[C@H](O)[C@H]1O` [Compound 3, 3-methyl-3-(n-butylα-D-glucopyranose-6-yl)-1-(2-chloroethyl)-1-nitrosourea], in the data set on Ehrlich acites carcinoma (read-out: Activity), the response vs control in vivo at 50 mg/kg lay within 11 to 40% and the response vs control in vivo at 200 mg/kg is 0 to 10%. Moreover, in the data set with Ehrlich acites carcinoma (read-out: T/C %), the response vs control in vivo at 50 mg/kg amounted to 22.4% and the response vs control in vivo at 200 mg/kg is 0%. Moreover, in the data set on Leukemia L1210, the ED (maximum ILS) was 90 mg/kg, the ED30 is 2.7 mg/kg, the “Survivors after 60 days” value is recorded as 6/6 and the “Max. ILS %” value is on record as above 700%. Also, the “Therapeutic ratio TR” value with Leukemia L1210 was determined as 33.3. Also, the LD50 (as a rule, the dose at which mortality reaches 50%) at 720 h in data set [1] amounted to 260 mg/kg.

`CCCCO[C@H]1O[C@H](CN(CCOCCO)C(=O)N(CCCl)N=O)[C@@H](O)[C@H](O)[C@H]1O` [Compound 12, 3-[2-(2-hydroxyethoxy)ethyl]-3-(n-butyl α-D-glucopyranose-6-yl)-1-(2-chloroethyl)-1-nitrosourea]: in the data set on Ehrlich acites carcinoma (read-out: Activity), the response vs control in vivo at 25 mg/kg was 0 to 10% and the response vs control in vivo at 100 mg/kg was in the range of 0 to 10%. Also, in the data set on Ehrlich acites carcinoma (read-out: T/C %), the response vs control in vivo at 25 mg/kg came out at 0% and the response vs control in vivo at 100 mg/kg turned out to be 0%. In the data set on Leukemia L1210, the ED (maximum ILS) worked out at 170 mg/kg, the ED30 is 2.85 mg/kg, the “Survivors after 60 days” value is reported as 6/6 and the “Max. ILS %” value is above 700%. In addition, the “Therapeutic ratio TR” value in the data set with Leukemia L1210 is 59.6. The same compound returned an LD50 at 720 h in data set [1] of 505 mg/kg.

In the case of `CCC(C)O[C@H]1O[C@H](CN(C(=O)N(CCCl)N=O)C(C)CO)[C@@H](O)[C@H](O)[C@H]1O` (stereo partly drawn) [Compound 20, 3-(2-hydroxy-1-methylethyl)-3-(sec-butyl α-D-glucopyranose-6-yl)-1-(2-chloroethyl)-1-nitrosourea], in the data set with Ehrlich acites carcinoma (read-out: Activity), the response vs control in vivo at 25 mg/kg lay in the range of 0 to 10% and the response vs control in vivo at 100 mg/kg lay within 0 to 10%. In addition, in the data set with Ehrlich acites carcinoma (read-out: T/C %), the response vs control in vivo at 25 mg/kg amounted to 0% and the response vs control in vivo at 100 mg/kg was 0%. In the data set with Leukemia L1210, the ED (maximum ILS) was 170 mg/kg, the ED30 was 3.92 mg/kg, the “Survivors after 60 days” value is recorded as 4/6 and the “Max. ILS %” value is reported as above 430%. Moreover, the “Therapeutic ratio TR” value with Leukemia L1210 was 43.4. Moreover, in data set [1], the LD50 at 720 h stood at 560 mg/kg.

For the compound `CCCCN(C[C@H]1O[C@H](OCCCOC)[C@H](O)[C@@H](O)[C@@H]1O)C(=O)N(CCCl)N=O` [Compound 30, 3-n-butyl-3-(3-methoxy-n-propyl-α-D-glucopyranose-6-yl)-1-(2-chloroethyl)-1-nitrosourea], in the data set on Ehrlich acites carcinoma (read-out: Activity), the response vs control in vivo at 25 mg/kg is 0 to 10% and the response vs control in vivo at 100 mg/kg fell in the range of 0 to 10%. For the same compound, in the data set on Ehrlich acites carcinoma (read-out: T/C %), the response vs control in vivo at 25 mg/kg was found to be 0% and the response vs control in vivo at 100 mg/kg was found to be 0%. Further, in the data set with Leukemia L1210, the ED (maximum ILS) was determined as 150 mg/kg, the ED30 was 2.61 mg/kg, the “Survivors after 60 days” value is 6/6 and the “Max. ILS %” value is recorded as above 700%. Further, the “Therapeutic ratio TR” value in the data set with Leukemia L1210 came to 57.5. Besides, the LD50 at 720 h in data set [1] amounted to 450 mg/kg.

`COCCCO[C@H]1O[C@H](CN(CC(C)C)C(=O)N(CCCl)N=O)[C@@H](O)[C@H](O)[C@H]1O` [Compound 31]: in the data set with Ehrlich acites carcinoma (read-out: Activity), the response vs control in vivo at 25 mg/kg is 0 to 10% and the response vs control in vivo at 100 mg/kg was 0 to 10%. Also, in the data set with Ehrlich acites carcinoma (read-out: T/C %), the response vs control in vivo at 25 mg/kg was 0% and the response vs control in vivo at 100 mg/kg turned out to be 0%. In the data set with Leukemia L1210, the ED (maximum ILS) came out at 170 mg/kg, the ED30 is 2.65 mg/kg, the “Survivors after 60 days” value is given as 6/6 and the “Max. ILS %” value is above 700%. Further, in the data set with Leukemia L1210, the “Therapeutic ratio TR” value turned out to be 64.2. The same compound had an LD50 at 720 h in data set [1] of 505 mg/kg.

As to `CC(C)CO[C@@H]1O[C@H](CN(CCC(C)(C)C)C(=O)N(CCCl)N=O)[C@@H](O)[C@H](O)[C@H]1O` [Compound 189, 3-(3,3-dimethyl-n-butyl)-2-(isobutyl β-D-glucopyranose-6-yl)-1-(2-chloroethyl)-1-nitrosourea], in the data set on Leukemia L1210, the ED (maximum ILS) amounted to 150 mg/kg, the ED30 is 3.1 mg/kg, the “Survivors after 60 days” value was 6/6 and the “Max. ILS %” value is above 700%. In the data set on Leukemia L1210, the “Therapeutic ratio TR” value is on record as 48.4. Besides, the LD50 at 720 h in data set [1] was 480 mg/kg.

For `CCC(C)O[C@H]1O[C@H](CN(CCC(C)(C)C)C(=O)N(CCCl)N=O)[C@@H](O)[C@H](O)[C@H]1O` (stereo partly drawn) [Compound 190, 3-(3,3-dimethyl-n-butyl)-3-(sec-butyl α-D-glucopyranose-6-yl)-1-(2-chloroethyl)-1-nitrosourea], in the data set on Leukemia L1210, the ED (maximum ILS) came to 150 mg/kg, the ED30 is 3.12 mg/kg, the “Survivors after 60 days” value is on record as 6/6 and the “Max. ILS %” value was above 700%. Further, the “Therapeutic ratio TR” value in the data set with Leukemia L1210 turned out to be 48.1. Also, the LD50 at 720 h in data set [1] stood at 470 mg/kg.

As to `CCCC(OC)O[C@H]1O[C@H](CN(CCC(C)(C)C)C(=O)N(CCCl)N=O)[C@@H](O)[C@H](O)[C@H]1O` (stereo partly drawn) [Compound 191, 3-(3,3-dimethyl-n-butyl)-3-(1-methoxy-n-butyl α-D-glucopyranose-6-yl)-1-(2-chloroethyl)-1-nitrosourea], in the data set on Leukemia L1210, the ED (maximum ILS) was 160 mg/kg, the ED30 worked out at 2.64 mg/kg, the “Survivors after 60 days” value is 6/6 and the “Max. ILS %” value is above 700%. Also, the “Therapeutic ratio TR” value in the data set with Leukemia L1210 turned out to be 60.6. This compound also returned an LD50 at 720 h in data set [1] of 560 mg/kg.

As to `CC(C)(C)CN(C[C@H]1O[C@H](OCC2CCCO2)[C@H](O)[C@@H](O)[C@@H]1O)C(=O)N(CCCl)N=O` (stereo partly drawn) [Compound 194, 3-neopentyl-3-(tetrahydrofurfuryl α-D-glucopyranose-6-yl)-1-(2-chloroethyl)-1-nitrosourea], in the data set with Leukemia L1210, the “O.D. (optimum dosage)” value was determined as 160 mg/kg, the ILS30 is 2.56 mg/kg, the “Survivors after 60 days” value is reported as 6/6 and the “Max. ILS %” value is above 700%. For the same compound, the “Therapeutic ratio TR” value in the data set on Leukemia L1210 was found to be 62.6. Also, the LD50 in data set [1] is given as 560 mg/kg.

`CCC(COC)O[C@H]1O[C@H](CN(CC(C)(C)C)C(=O)N(CCCl)N=O)[C@@H](O)[C@H](O)[C@H]1O` (stereo partly drawn) [Compound 196, 3-neopentyl-3-(1-methoxy-sec-butyl α-D-glucopyranose-6-yl)-1-(2-chloroethyl)-1-nitrosourea]: in the data set with Leukemia L1210, the “O.D. (optimum dosage)” value is on record as 160 mg/kg, the ILS30 is 2.52 mg/kg, the “Survivors after 60 days” value is listed as 6/6 and the “Max. ILS %” value is reported as above 700%. The “Therapeutic ratio TR” value in the data set on Leukemia L1210 was determined as 63.4. This compound showed an LD50 in data set [1] of 560 mg/kg.

`CC(C)CN(C[C@H]1O[C@@H](OCCN2CCOCC2)[C@H](O)[C@@H](O)[C@@H]1O)C(=O)N(CCCl)N=O` [Compound 199, 3-isobutyl-3-(2-morpholinoethyl β-D-glucopyranose-6-yl)-1-(2-chloroethyl)-1-nitrosourea]: in the data set on Leukemia L1210, the ED (maximum ILS) came out at 160 mg/kg, the ED30 is 3.2 mg/kg, the “Survivors after 60 days” value is 6/6 and the “Max. ILS %” value is reported as above 700%. Also, in the data set with Leukemia L1210, the “Therapeutic ratio TR” value is reported as 50.0. Also, the LD50 at 720 h in data set [1] was determined as 520 mg/kg.

Regarding `CC(C)(C)N(C[C@H]1O[C@H](OC(c2ccccc2)C2CC2)[C@H](O)[C@@H](O)[C@@H]1O)C(=O)N(CCCl)N=O` (stereo partly drawn) [Compound 201, 3-tert-butyl-3-(α-cyclopropylbenzyl α-D-glucopyranose-6-yl)-1-(2-chloroethyl)-1-nitrosourea], in the data set on Leukemia L1210, the ED (maximum ILS) came out at 150 mg/kg, the ED30 was 4.78 mg/kg, the “Survivors after 60 days” value is 6/6 and the “Max. ILS %” value was above 700%. Also, the “Therapeutic ratio TR” value in the data set with Leukemia L1210 worked out at 31.4. In addition, the LD50 at 720 h in data set [1] came out at 460 mg/kg.

Regarding `CO[C@H]1O[C@H](CO)[C@@H](O)[C@H](NC(=O)N(CCCl)N=O)[C@H]1O` [KCNUM, 3-(methyl α-D-glucopyranose-3-yl)-1-(2-chloroethyl)-1-nitrosourea, reference compound], in the data set with Leukemia L1210, the ED (maximum ILS) was 25.4 mg/kg, the ED30 was 1.38 mg/kg, the “Survivors after 60 days” value is on record as 4/6 and the “Max. ILS %” value is reported as above 425%. Moreover, the “Therapeutic ratio TR” value in the data set with Leukemia L1210 was determined as 18.4. Moreover, in data set [1], the LD50 at 720 h amounted to 130 mg/kg.

The record behind these values is patent US4593090A, “Novel nitrosourea compounds, method for preparing same, and pharmaceutical composition containing same” (Gogo Kimura, priority 1981, dated 1986).
